# Columns and labels:
# [1] = tested on: pyramidal cells in the CA1 region of the hippocampus; test: Golgi staining morphological analysis of CA1 pyramidal cells; format: in vivo, mouse; conditions: for total spine counts, apical dendrites / total spine counts, basal dendrites: FIG. 19B; for overall spine density: FIG. 20A; for spine density, apical dendrites / spine density, basal dendrite: FIG. 20B; for spine density versus branch order, overall: FIG. 21A; for spine density versus branch order, basal dendrites: FIG. 21B; for spine density versus branch order, apical dendrites: FIG. 21C; for spine density at 30 um intervals from the soma, overall: FIG. 22A; for spine density at 30 um intervals from the soma, basal dendrites: FIG. 22B; for spine density at 30 um intervals from the soma, apical dendrites: FIG. 22C
# Experimental: Details of the animals, materials, and methods used are provided following the discussion section below. Briefly, all studies discussed below were conducted using three groups of animals designated “Young” (2 months of age at the beginning of the 8-week study, 4 months of age at time of testing; “Old” (22 months of age at beginning of study, 24 months of age at time of testing); and “Treatment” (“Old” mice who received GL-II-73 in the drinking water for 8 weeks prior to evaluation of cognitive ability and pyramidal cell morphology). The last study further included a fourth group of animals, “Treatment+Washout” which were treated the same as the “Treatment” group except that the GL-II-73 was removed for a 1 week “wash-out” period prior to evaluation of pyramidal cell morphology.
# We confirmed and extended these findings by conducting similar analyses of pyramidal cells in a different brain region, namely the CA1 region of the hippocampus, using the same animals. […] As observed above for the pyramidal cells of the PFC, the morphology of the CA1 pyramidal cells in the treatment group was very similar to that of the young mice. […] The positive correlation between the morphological changes observed in each of the three groups of animals in both regions of the brain, CA1 vs PFC brain regions is shown in FIGS. 11-12. This positive correlation of morphological changes across these two regions of the brain indicates a common factor underlying the effects in both regions.
# We also performed the same morphological analyses of pyramidal cells in the CA1 region of the hippocampus for each group.
# Drug preparation and administration: The compound GL-II-73 was administered in the drinking water for 8 weeks, and made fresh every other day to prevent any deterioration of the compound in the water at room temperature. The solution was prepared at 30 mg/kg for an estimated volume of 8 ml/mouse/day, based on previous calculations. For the pilot study in the 5×FAD mouse model, the compound GL-II-73 was prepared for intra peritoneal injection only, at a dose of 10 mg/kg. Vehicle solution was made of 85% distilled water, 14% propylene glycol and 1% tween-80.
# Brain collection and Golgi staining: Twenty-four hours after the completion of the behavioral testing, mice were euthanized using cervical dislocation. Brains were carefully collected from the skull, rinsed with MilliQ water and immersed in the Golgi staining solution provided by Neurodigitech (San Diego, CA). Six hours after the beginning of the incubation, the solution was changed to provide fresh solution. Then brains were left incubating for 14 days at room temperature, in the dark. For better results, vials containing the brains were gently swirled 3 times a week. After the incubation period, the staining solution was discarded and replaced by a storage solution and brains (n=4 per group) were shipped to Neurodigitech for morphological analysis.
# Sample selection criteria: The sampling process was conducted as follows: The investigators first 1) previewed the entire rostro-caudal axis of ROIs, under low-mag Zeiss objectives (10× and 20×), 2), compared and located those with the least truncations of distal dendrites as possible under high-mag Zeiss objectives (40× and 63×), 3), and then 4) used a Zeiss 100× objective with immersion oil to perform 3D dendritic reconstruction, followed by counting of the spines throughout the entire dendritic trees. The criteria for selecting candidate neurons for analysis were based on i) visualization of a completely filled soma with no overlap of neighboring soma and completely filled dendrites, ii) the tapering of most distal dendrites; iii) the visualization of the complete 3-D profile of dendritic trees using the 3-D display of imaging software. Neurons with incomplete impregnation and/or neurons with truncations due to the plane of sectioning were not collected. […]
# [2] = tested on: cultured pyramidal neurons; test: Morphology of cultured GFP-expressing pyramidal neurons after acute treatment; format: cell-based, mouse; conditions: 1 μM, 24 hrs, vs vehicle (0.01% DMSO); FIG. 11A-B; initial data
# Experimental: Transgenic mice were generated to express a fluorescent protein (GFP) only in pyramidal neurons. Embryos were collected at E17, and brain homogenates were plated and cultured under suitable conditions for neuronal growth. Following 2 weeks of incubation and growth, the compound GL-II-73 (1 μM) or vehicle was applied and left for 24 hrs. Isolated cells were then used to image the entire neuron and visualize dendrites and spines on a single neuron.
# [3] = Table 3, Old, Treatment group, 4 samples
# [4] = Table 3, Old, Washout group, 4 samples
# [5] = first study, Old+Treatment mice
# [6] = washout study, Old+Treatment vs Young mice, p>0.05
# [7] = washout study, Washout vs Old mice, p<0.05
# [8] = washout study, Old+Treatment vs Old mice, p<0.05
smiles,measurement,setting,value
"C#Cc1ccc2c(c1)C(c1ccccc1F)=N[C@H](C)c1c(C(=O)N(C)C)ncn1-2 (stereo in doubt) [GL-II-73, 8-ethynyl-6-(2-fluorophenyl)-N,N,4-trimethyl-4H-benzo[f]imidazo[1,5-a][1,4]diazepine-3-carboxamide]",Total segments,"[1]; Table 3, washout study, Old, Treatment group (8 weeks GL-II-73), 4 samples",1226
same,Overall spinal density,[1]; [3],1.07
same,Total lengths (microns),[1]; [3],60170 microns
same,total spine counts,[1]; [3],64468
same,Total segments,"[1]; Table 3, Old, Washout group (8 weeks GL-II-73, then 1 week wash-out), 4 samples",1266
same,Overall spinal density,[1]; [4],1.10
same,Total lengths (microns),[1]; [4],65954 microns
same,total spine counts,[1]; [4],72587
same,"Frequency of Intersections × 30 um interval from soma, apical",[1]; [5],"at 150 um-180 um, apically"
same,"Frequency of Intersections × 30 um interval from soma, basal",[1]; [5],"higher frequency at 120 um-150 um, basally"
same,Frequency of Intersections × 30 um interval from soma,"[1]; first study, Old+Treatment vs Old mice",higher frequency of intersections at the middle (120 um to 180 um) of the dendritic field than Old mice
same,spine density,"[1]; first study, treatment group vs untreated old mice",relatively higher spine density than the untreated group of old mice
same,total spine counts,"[1]; washout study, FIG. 19A, Old+Treatment vs Young mice, p>0.05",no difference was found between Young and Old+Treatment as well as Washout mice
same,total spine counts,"[1]; washout study, FIG. 19A, Washout (1 week after 8 weeks GL-II-73) vs Old mice, p<0.05",higher spine counts than Old mice
same,"total spine counts, apical dendrites",[1]; [6],no difference in total spine counts of both basal and apical dendrites between Young and Old+Treatment as well as Washout mice
same,"total spine counts, basal dendrites",[1]; [6],no difference in total spine counts of both basal and apical dendrites between Young and Old+Treatment as well as Washout mice
same,"total spine counts, apical dendrites",[1]; [7],higher spine counts of apical dendrites than Old mice
same,"total spine counts, basal dendrites",[1]; [7],higher spine counts of basal dendrites than Old mice
same,overall spine density,[1]; [8],higher spine density than Old mice
same,overall spine density,[1]; [7],higher spine density than Old mice
same,"spine density, apical dendrites",[1]; [8],"Old mice exhibited a lower spine density than Young, Old+Treatment and Washout mice"
same,"spine density, basal dendrite",[1]; [8],"Old mice showed a significant decrease in the basal dendrite as compared to Young, Old+Treatment and Washout mice"
same,"spine density, apical dendrites",[1]; [7],"Old mice exhibited a lower spine density than Young, Old+Treatment and Washout mice"
same,"spine density, basal dendrite",[1]; [7],"Old mice showed a significant decrease in the basal dendrite as compared to Young, Old+Treatment and Washout mice"
same,"spine density versus branch order, overall",[1]; [8],higher spine density at the 1st and 5th branch orders
same,"spine density versus branch order, overall",[1]; [7],higher spine density at the 1st and 3rd to 6th
same,"spine density versus branch order, basal dendrites",[1]; [8],higher density at the 1st branch order than Old mice
same,"spine density versus branch order, basal dendrites",[1]; [7],higher density at the 1st branch order than Old mice
same,"spine density versus branch order, apical dendrites",[1]; [8],higher density at the 1st order than Old mice
same,"spine density versus branch order, apical dendrites",[1]; [7],at the 4th and 5th orders than Old mice
same,"spine density at 30 um intervals from the soma, overall",[1]; [8],higher spine density at 30 um to 60 um and 120 um to 240 um from soma
same,"spine density at 30 um intervals from the soma, overall",[1]; [7],higher spine density at 30 um to 180 um from soma
same,"spine density at 30 um intervals from the soma, basal dendrites",[1]; [8],higher density at 30 um from soma than Old mice
same,"spine density at 30 um intervals from the soma, basal dendrites",[1]; [7],higher density at 30 um from soma than Old mice
same,"spine density at 30 um intervals from the soma, apical dendrites",[1]; [8],higher density at 120 um to 180 um from soma than Old mice
same,"spine density at 30 um intervals from the soma, apical dendrites",[1]; [7],higher spine density at 30 um to 60 um and 120 um to 210 um from soma than Old mice
same,dendritic length,[2],longer dendrites
same,spine density (spines),[2],more spines

# Reference: patent publication US12636291B2, “Compositions and methods relating to use of agonists of ALPHA5-containing GABAA receptors” (Centre for Addiction and Mental Health, priority 2019, dated 2026)
